Measurements taken from article PMC10255569, “Discovery of Peptidic Ligands against the SARS-CoV-2 Spike Protein and Their Use in the Development of a Highly Sensitive Personal Use Colorimetric COVID-19 Biosensor” (ACS Sensors, 2023).
Non-standard residues stand in square brackets, D forms with d. Residues, ends and D or L forms follow the SMILES beside them. *: point of attachment. Biotin = O=C1N[C@H]2[C@H](CS[C@H]2CCCCC(=O)*)N1; Phe(3,5-F2) = N[C@@H](Cc1cc(F)cc(F)c1)C(=O)O; hCit = NC(=O)NCCCC[C@H](N)C(=O)O; Aad = N[C@@H](CCCC(=O)O)C(=O)O; dPhg = N[C@@H](C(=O)O)c1ccccc1; Nva = CCC[C@H](N)C(=O)O; AEEA = NCCOCCOCC(=O)O; Ac3c = NC1(C(=O)O)CC1

Tested on: SARS-CoV-2 spike protein active trimer
Format: binding

Structure (SMILES) | binding to the S-protein active trimer (in words) | Kd | binding affinity, times higher than CoV6-2 | binding affinity, times stronger than the 13-mer reference peptide
COc1ccc(C[C@H](NC(=O)[C@H](N)Cc2c[nH]cn2)C(=O)N[C@@H](CCCNC(=N)N)C(=O)N[C@@H](C(=O)N[C@H](CCC(=O)O)C(=O)N[C@H](Cc2c[nH]cn2)C(=O)N[C@H](CCSC)C(=O)N[C@@H](CC(C)C)C(=O)NCCOCCOCC(=O)NCCOCCOCC(=O)N[C@@H](CCCCNC(=O)CCCC[C@@H]2SC[C@@H]3NC(=O)N[C@@H]32)C(N)=O)c2ccccc2)cc1 [L9-1] (H-[dH]Y(Me)R[dPhg][dE][dH][dM]L[AEEA][AEEA]K(Biotin)-NH2) | bind reasonably well |  |  | 
CCC[C@H](NC(=O)[C@H](CCCCNC(N)=O)NC(=O)[C@H](CCCNC(=N)N)NC(=O)[C@H](Cc1ccc(OC)cc1)NC(=O)[C@H](N)Cc1c[nH]cn1)C(=O)N[C@@H](CCCNC(=N)N)C(=O)N[C@@H](Cc1cc(F)cc(F)c1)C(=O)N[C@@H](Cc1ccccc1)C(=O)N[C@@H](CCCC(=O)O)C(=O)NCCOCCOCC(=O)NCCOCCOCC(=O)N[C@@H](CCCCNC(=O)CCCC[C@@H]1SC[C@@H]2NC(=O)N[C@@H]21)C(N)=O [L10-2] (H-[dH]Y(Me)R[hCit][Nva]R[Phe(3,5-F2)]F[Aad][AEEA][AEEA]K(Biotin)-NH2) | bind reasonably well | 25 nM | 8 times | ~3 times
CCC[C@H](NC(=O)[C@H](CCC(N)=O)NC(=O)[C@@H](N)Cc1cc(F)cc(F)c1)C(=O)N[C@@H](CCCNC(=N)N)C(=O)N[C@H](CC(N)=O)C(=O)N[C@@H](CCC)C(=O)N[C@H](CC(N)=O)C(=O)NC1(C(=O)NCCOCCOCC(=O)NCCOCCOCC(=O)N[C@@H](CCCCNC(=O)CCCC[C@@H]2SC[C@@H]3NC(=O)N[C@@H]32)C(N)=O)CC1 [L10-3] (H-[Phe(3,5-F2)]Q[Nva]R[dN][Nva][dN][Ac3c][AEEA][AEEA]K(Biotin)-NH2) | bind reasonably well |  |  | 
CCC[C@H](NC(=O)[C@H](CCCCNC(N)=O)NC(=O)[C@H](Cc1ccc(OC)cc1)NC(=O)[C@H](N)Cc1c[nH]cn1)C(=O)N[C@@H](CCCNC(=N)N)C(=O)N[C@@H](Cc1cc(F)cc(F)c1)C(=O)N[C@@H](Cc1ccccc1)C(=O)N[C@@H](CCCC(=O)O)C(=O)NCCOCCOCC(=O)NCCOCCOCC(=O)N[C@@H](CCCCNC(=O)CCCC[C@@H]1SC[C@@H]2NC(=O)N[C@@H]21)C(N)=O [L10-4] (H-[dH]Y(Me)[hCit][Nva]R[Phe(3,5-F2)]F[Aad][AEEA][AEEA]K(Biotin)-NH2) | bind reasonably well |  |  | 
CC(C)C[C@H](NC(=O)CNC(=O)[C@H](Cc1ccccc1)NC(=O)[C@@H](NC(=O)[C@@H](N)[C@@H](C)O)C(C)C)C(=O)N[C@@H](CC(N)=O)C(=O)N[C@H](C(=O)N[C@@H](Cc1c[nH]c2ccccc12)C(=O)N[C@@H](CCCCN)C(=O)N[C@@H](CCCNC(=N)N)C(=O)N[C@@H](Cc1ccc(O)cc1)C(=O)N[C@@H](CO)C(=O)N[C@@H](CCCCN)C(=O)NCCOCCOCC(=O)NCCOCCOCC(=O)N[C@@H](CCCCNC(=O)CCCC[C@@H]1SC[C@@H]2NC(=O)N[C@@H]21)C(N)=O)C(C)C [Reference Peptide, reference compound] (H-TVFGLNVWKRYSK[AEEA][AEEA]K(Biotin)-NH2) |  | 79 nM |  | 
